Results on nine compounds are retold here after patent US10077287B2, “Tubulysin analogs and methods of making and use” (priority 2014, dated 2018).

For one assay, the system named is H226 (human lung cancer). Put plainly: Inhibition of cell proliferation (ATP luminescence or MTS assay), H226. Conditions: NCI-H226, 72 h, read-out: Cancer Cell Line: EC50 (nM) H226. Type of assay: cell-based. How it is done: (§1) The cancer cells lines tested against were: H226 (human lung cancer); N87 (human gastric cancer), OVCAR3 (human ovarian cancer), HCT116 (human colon cancer), HCT116NM46 (HCT116 subline with multi-drug resistance, including to paclitaxel), and ACR (human breast cancer, multi-drug resistant). Table II also includes comparative data against reference compounds (A)-(G) not according to this invention:
(§2) The ability of test compounds to inhibit cell proliferation was measured by either an ATP luminescence assay or an MTS cell proliferation assay. […] In some instances, both methods were used.
(§3) This is a general procedure for an ATP luminescence assay: Cells are seeded at 1×10^3 cells/well in 96-well plates for 3 h for ATP CellTiterGlo™ assays, respectively. Serial dilutions (1:3) of compounds are added to the wells. Plates are allowed to incubate for 72 h. A CellTiterGlo™ cell viability kit from Promega is used to measure ATP content of cells treated with test compounds following manufacturer's instruction. A decrease in the ATP content is a measure of decrease in cellular viability. The EC50 value—the concentration at which an agent reduces cell viability by 50% of the maximum effect—is determined using PRISM™ software, version 5.0 (GraphPad Software, La Jolla, Calif., USA).
(§4) The following is a description of the MTS cell proliferation assay: CellTiter 96 Aqueous Non-Radioactive Cell proliferation Kit from Promega (Madison, Wis.) is used to determine the number of viable cells in cell proliferation assay. Tumor cells are plated at certain seeding densities in sterile 384-well black clear bottom Matrix plates at 40 μL per well and incubated overnight at 37° C. in 5% CO2 before assaying. On the next day, one set of cell plates (T0 plates) is used to determine time zero cell density, and 3-(4,5-dimethylthiazol-2-yl)-5-(3-carboxymethoxyphenyl)-2-(4-sulfophenyl)-2H-tetrazolium is added at 4 μL/well into T0 plates followed by incubation at 37° C. in 5% CO2 for three hours. This tetrazolium reagent is bioreduced by […] to form a formazan product which is soluble in aqueous solution. Absorbance at 490 nm is measured on an Envision reader (Perkin Elmer, Boston, Mass.). On the same day, compounds are added into remaining cell plates (T72 plates) and incubated at 37° C. in 5% CO2. After 72 hours, 4 μL MTS reagents are then added into those cell plates. The plates are further incubated at 37° C. in 5% CO2 for three hours and the absorbance values at A490 were measured on an Envision reader.
A general note: Tetrazolium assays rely on reduction of a dye to a coloured formazan, in cell work by metabolically active cells.

The test system of assay [1] is ADR (human breast cancer, multi-drug resistant). Nature of the assay: Inhibition of cell proliferation (ATP luminescence or MTS assay), ADR. It counts as cell-based. Conditions: 72 h, read-out: Cancer Cell Line: EC50 (nM) ADR. As for the experimental part:
as §1, §2
This is a general procedure for an ATP luminescence assay: Cells are seeded at 1×10^3 cells/well in 96-well plates for 3 h for ATP CellTiterGlo™ assays, respectively. Serial dilutions (1:3) of compounds are added to the wells. Plates are allowed to incubate for 72 h. […]
The following is a description of the MTS cell proliferation assay: CellTiter 96 Aqueous Non-Radioactive Cell proliferation Kit from Promega (Madison, Wis.) is used to determine the number of viable cells in cell proliferation assay. […] Absorbance at 490 nm is measured on an Envision reader (Perkin Elmer, Boston, Mass.). […] The plates are further incubated at 37° C. in 5% CO2 for three hours and the absorbance values at A490 were measured on an Envision reader.

The test system of assay [2] is OVCAR3 (human ovarian cancer). Nature of the assay: Inhibition of cell proliferation (ATP luminescence or MTS assay), OVCAR3. Type of assay: cell-based. Conditions: OVCAR-3, 72 h, read-out: Cancer Cell Line: EC50 (nM) OVCAR3. As for the experimental part:
as §1, §2, §3, §4

The test system of assay [3] is N87 (human gastric cancer). Nature of the assay: Inhibition of cell proliferation (ATP luminescence or MTS assay), N87. Type of assay: cell-based. The settings on record: 72 h, read-out: Cancer Cell Line: EC50 (nM) N87. How it is done: as §1, §2, §3, §4
The subject of assay [4] is HCT116/VM46 (HCT116 subline with multi-drug resistance, including to paclitaxel). Put plainly: Inhibition of cell proliferation (ATP luminescence or MTS assay), HCT116/VM46. Type of assay: cell-based. Conditions: Homo sapiens, HCT-116/VM46, multi-drug resistant HCT116 subline, 72 h, read-out: Cancer Cell Line: EC50 (nM) HCT116/VM46. How it is done: as §1, §2, §3, §4
Assay [5] deals with HCT116 (human colon cancer). Put plainly: Inhibition of cell proliferation (ATP luminescence or MTS assay), HCT116. It counts as cell-based. The settings on record: HCT-116, 72 h, read-out: Cancer Cell Line: EC50 (nM) HCT116. As for the experimental part:
as §1, §2, §3, §4

Assay [6] deals with various cancer cell lines. Conditions: Kaur et al. 2006; cited from earlier work.
The conditions of assay [7]: in vitro assays; Kaur et al. 2006; cited from earlier work.
The subject of assay [8] is cancer cells. The settings on record: cancer cells versus normal cells; Kaur et al. 2006; cited from earlier work.
For assay [9], the system named is cancer cells. Conditions: Kaur et al. 2006; cited from earlier work.

In the case of `CCCN(C(=O)[C@@H](NC(=O)[C@H]1CCCCN1C)[C@@H](C)CC)[C@H](C[C@@H](OC(=O)NC)c1nc(C(=O)N[C@H](CCC(=O)O)Cc2ccc(N)cc2)cs1)C(C)C` [(E), reference compound], the EC50 in the assay on H226 (human lung cancer) worked out at 28 nM; in [1], 189 nM.

`CCCN(C(=O)[C@@H](NC(=O)[C@H]1CCCCN1C)[C@@H](C)CC)[C@H](C[C@@H](OC(C)=O)c1nc(C(=O)N[C@@H](Cc2ccc(N)cc2)CC(C)(C)C(=O)O)cs1)C(C)C` [(Ia-1)]: the results for the EC50 (in assay [2]; in the assay with H226 (human lung cancer); in assay [3]) were 0.016 to 0.04 nM, 0.089 nM and 0.03 to 0.2 nM, respectively.

With `CCCN(C(=O)[C@@H](NC(=O)[C@H]1CCCCN1C)[C@@H](C)CC)[C@H](C[C@@H](OC(=O)NC)c1nc(C(=O)N[C@@H](Cc2ccc(N)cc2)CC(C)(C)C(=O)O)cs1)C(C)C` [(Ia-2), (S)-5-(4-aminophenyl)-4-(2-((5R,7R,10S)-10-((S)-sec-butyl)-7-isopropyl-12-((R)-1-methylpiperidin-2-yl)-3,9,12-trioxo-8-propyl-4-oxa-2,8,11-triazadodecan-5-yl)thiazole-4-carboxamido)-2,2-dimethylpentanoic acid], the EC50 in assay [2] is 0.07 to 0.1 nM; in the assay with H226 (human lung cancer), 0.33 to 1.1 nM; in assay [3] it was 0.65 to 1 nM; in [4], 1.22 nM; in assay [1], 9.5 nM; in [5], 0.58 nM.

`CCCN(C(=O)[C@@H](NC(=O)[C@H]1CCCCN1C)C(C)C)[C@H](C[C@@H](OC(C)=O)c1nc(C(=O)N[C@@H](Cc2ccc(N)cc2)CC(C)(C)C(=O)O)cs1)C(C)C` [(Ia-3)]: the EC50 in [2] stood at 0.019 nM; in the assay on H226 (human lung cancer), 0.086 nM; in assay [3], 0.16 nM; in assay [4], 0.19 nM; in assay [5], 0.13 nM.

For `CCCN(C(=O)[C@@H](NC(=O)[C@H]1CCCCN1C)[C@@H](C)CC)[C@H](C[C@@H](OC(=O)NC)c1nc(C(=O)N[C@@H](Cc2ccc(N)cc2)CC2(C(=O)O)CC2)cs1)C(C)C` [(Ib-1), 1-((S)-3-(4-aminophenyl)-2-(2-((5R,7R,10S)-10-((S)-sec-butyl)-7-isopropyl-12-((R)-1-methylpiperidin-2-yl)-3,9,12-trioxo-8-propyl-4-oxa-2,8,11-triazadodecan-5-yl)thiazole-4-carboxamido)propyl)cyclopropanecarboxylic acid], the EC50 in assay [2] was found to be 0.07 nM; in the assay with H226 (human lung cancer), 0.63 nM; in [3], 1.7 nM.

`CCCN(C(=O)[C@@H](NC(=O)[C@H]1CCCCN1C)[C@@H](C)CC)[C@H](C[C@@H](OC(=O)NC)c1nc(C(=O)N[C@@H](Cc2ccc(N)cc2)CC2(C(=O)OC)CC2)cs1)C(C)C` [(Ib-2), methyl 1-((S)-3-(4-aminophenyl)-2-(2-((5R,7R,10S)-10-((S)-sec-butyl)-7-isopropyl-12-((R)-1-methylpiperidin-2-yl)-3,9,12-trioxo-8-propyl-4-oxa-2,8,11-triazadodecan-5-yl)thiazole-4-carboxamido)propyl)cyclopropanecarboxylate]: the EC50 amounted to 0.15 nM in [2], 0.4 nM with H226 (human lung cancer) and 4.4 nM in assay [3].

Turning to `CCCN(C(=O)[C@@H](NC(=O)[C@H](NC)C(C)C)[C@@H](C)CC)[C@H](C[C@@H](OC(C)=O)c1nc(C(=O)N[C@@H](Cc2ccccc2)CC(C)(C)C(=O)O)cs1)C(C)C` [(Ic-1), (S)-4-(2-((3R,6S,9R,11R)-6-((S)-sec-butyl)-3,9-diisopropyl-4,7,13-trioxo-8-propyl-12-oxa-2,5,8-triazatetradecan-11-yl)thiazole-4-carboxamido)-2,2-dimethyl-5-phenylpentanoic acid], the EC50 in assay [2] is 0.012 nM; in the assay with H226 (human lung cancer) it was 0.038 nM; in [3], 0.2 nM; in assay [4], 0.51 nM; in assay [5] it was 0.064 nM.

Consider `CCCN(C(=O)[C@@H](NC(=O)[C@H](NC)C(C)C)[C@@H](C)CC)[C@H](C[C@@H](OC(=O)NC)c1nc(C(=O)N[C@@H](Cc2ccccc2)CC(C)(C)C(=O)O)cs1)C(C)C` [(Ic-2)], for which the EC50 in assay [2] was 0.04 nM; in the assay with H226 (human lung cancer) it was 0.31 nM; in assay [3], 0.37 nM; in assay [4], 7.5 nM; in assay [5], 0.26 nM.

For `CC[C@H](C)[C@H](NC(=O)[C@H]1CCCCN1C)C(=O)N(COC(=O)CC(C)C)[C@H](C[C@@H](OC(C)=O)c1nc(C(=O)N[C@@H](Cc2ccc(O)cc2)C[C@H](C)C(=O)O)cs1)C(C)C` [tubulysin A], the “activity in xenograft assays” value in assay [6] is “active in xenograft assays”. The antiangiogenic properties entry in assay [7] is “significant potential antiangiogenic properties”. In addition, the induction of apoptosis entry in the assay on cancer cells [8] is given as “induced apoptosis in cancer cells but not in normal cells”. Further, the “antiproliferative potency compared with paclitaxel and vinblastine” value in the assay on cancer cells [9] was “more potent than paclitaxel and vinblastine”.
